Source: patent publication US20250250230A1, “HETEROCYCLIC COMPOUND” (TAKEDA PHARMACEUTICAL COMPANY LIMITED, priority 2022, published 2025)

biological target: T1, human orexin type 2 receptor (Homo sapiens, UniProt O43614); assay: Measurement of orexin type 2 receptor agonist activity (calcium fluorescence, Fluo-4 AM, FDSS); assay type: cell-based; settings: test compound 3 μM; CHO cells expressing human OX2 receptor; DMSO = 0%, orexin A (human) = 100%
T1 construct: expressed in transfected cells
T1 sequence (O43614 1-444): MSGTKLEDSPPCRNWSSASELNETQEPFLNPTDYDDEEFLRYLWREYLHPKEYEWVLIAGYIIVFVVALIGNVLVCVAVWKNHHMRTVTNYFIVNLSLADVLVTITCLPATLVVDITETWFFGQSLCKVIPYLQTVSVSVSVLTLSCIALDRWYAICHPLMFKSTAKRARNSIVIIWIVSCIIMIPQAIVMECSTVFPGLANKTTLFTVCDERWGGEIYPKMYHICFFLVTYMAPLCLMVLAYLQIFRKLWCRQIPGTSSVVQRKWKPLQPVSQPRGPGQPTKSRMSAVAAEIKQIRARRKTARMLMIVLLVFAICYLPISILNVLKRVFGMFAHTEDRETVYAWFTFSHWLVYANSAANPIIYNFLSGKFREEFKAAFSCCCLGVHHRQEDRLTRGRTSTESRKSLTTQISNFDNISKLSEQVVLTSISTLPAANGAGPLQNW
In short: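 CHO-K1 cells stably expressing human OX2R were loaded with Fluo-4 AM (30 min 37 °C, 30 min RT) in HEPES-buffered HBSS with 0.1% BSA and probenecid. Calcium fluorescence was followed on FDSS for 2 min after compound addition; activity normalised to DMSO (0%) and 10 nM orexin A (100%).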

Row | Molecule | OX2R agonist activity (3 μM, %) [%]
1 | CS(=O)(=O)NC1CCCN(C(=O)C2CC2c2ccccc2-c2cc(F)ccc2F)CC1 (racemic) [Example 51, a mixture of rac-N-{(4R)-1-[(1R,2R)-2-(2′,5′-difluoro[1,1′-biphenyl]-2-yl)cyclopropane-1-carbonyl]azepan-4-yl}methanesulfonamide and rac-N-{(4S)-1-[(1R,2R)-2-(2′,5′-difluoro[1,1′-biphenyl]-2-yl)cyclopropane-1-carbonyl]azepan-4-yl}methanesulfonamide] | 75
2 | N-({(2S,3R)-1-[(1R,2R)-2-fluoro-2-(2′- fluoro[1,1′-biphenyl]-2- yl)cyclopropane-1-carbonyl]-3- methylazetidin-2- yl}methyl)ethanesulfonamide, or N- ({(2S,3R)-1-[(1S,2S)-2-fluoro-2-(2′- fluoro[1,1′-biphenyl]-2- yl)cyclopropane-1-carbonyl]-3- methylazetidin-2- yl}methyl)ethanesulfonamide [Example 439] | 107
3 | CS(=O)(=O)NC1CCCN(C(=O)C2CC2c2ccccc2-c2ccc(F)cc2F)CC1 (racemic) [Example 56, a mixture of rac-N-{(4R)-1-[(1R,2R)-2-(2′,4′-difluoro[1,1′-biphenyl]-2-yl)cyclopropane-1-carbonyl]azepan-4-yl}methanesulfonamide and rac-N-{(4S)-1-[(1R,2R)-2-(2′,4′-difluoro[1,1′-biphenyl]-2-yl)cyclopropane-1-carbonyl]azepan-4-yl}methanesulfonamide] | 85
4 | CCS(=O)(=O)NC1CCN(C(=O)C2CC2c2ccccc2-c2c(F)cccc2F)C1 (racemic) [Example 27, a mixture of rac-N-{(3R)-1-[(1R,2R)-2-(2′,6′-difluoro[1,1′-biphenyl]-2-yl)cyclopropane-1-carbonyl]pyrrolidin-3-yl}ethanesulfonamide and rac-N-{(3S)-1-[(1R,2R)-2-(2′,6′-difluoro[1,1′-biphenyl]-2-yl)cyclopropane-1-carbonyl]pyrrolidin-3-yl}ethanesulfonamide] | 98
5 | CS(=O)(=O)N[C@H]1CCCN(C(=O)[C@@H]2C[C@H]2c2ccccc2-c2c(F)cccc2F)C1 [Example 24, N-{(3S)-1-[(1R,2R)-2-(2′,6′-difluoro [1,1′-biphenyl]-2-yl)cyclopropane-1-carbonyl]piperidin-3-yl}methanesulfonamide] | 95
6 | CS(=O)(=O)N[C@H]1CCCN(C(=O)C2CC2c2cccc(F)c2-c2c(F)cccc2F)C1 (mixture of isomers) [Example 193, a mixture of N-{(3S)-1-[(1R,2R)-2-(2′,6,6′-trifluoro[1,1′-biphenyl]-2-yl)cyclopropane-1-carbonyl]piperidin-3-yl}methanesulfonamide and N-{(3S)-1-[(1S,2S)-2-(2′,6,6′-trifluoro[1,1′-biphenyl]-2-yl)cyclopropane-1-carbonyl]piperidin-3-yl}methanesulfonamide] | 98
7 | CS(=O)(=O)N[C@H]1CCN(C(=O)C2CC2c2cccc(F)c2-c2c(F)cccc2F)C1 (mixture of isomers) [Example 192, a mixture of N-{(3S)-1-[(1R,2R)-2-(2′,6,6′-trifluoro[1,1′-biphenyl]-2-yl)cyclopropane-1-carbonyl]pyrrolidin-3-yl}methanesulfonamide and N-{(3S)-1-[(1S,2S)-2-(2′,6,6′-trifluoro[1,1′-biphenyl]-2-yl)cyclopropane-1-carbonyl]pyrrolidin-3-yl}methanesulfonamide] | 95
8 | CS(=O)(=O)NC1CCCN(C(=O)C2CC2c2ccccc2-c2c(F)cccc2F)CC1 (racemic) [Example 38, a mixture of rac-N-{(4R)-1-[(1R,2R)-2-(2′,6′-difluoro[1,1′-biphenyl]-2-yl)cyclopropane-1-carbonyl]azepan-4-yl}methanesulfonamide and rac-N-{(4S)-1-[(1R,2R)-2-(2′,6′-difluoro[1,1′-biphenyl]-2-yl)cyclopropane-1-carbonyl]azepan-4-yl}methanesulfonamide] | 106

Next, values leading:

Row | OX2R agonist activity (3 μM, %) [%] | Molecule
9 | 104 | Cc1ccc(C2(F)CC2C(=O)N2C[C@@H](C)[C@H]2CNS(C)(=O)=O)c(-c2c(F)cccc2F)c1 (stereo partly drawn) [Example 396, N-({(2S,3R)-1-[(1R,2R)-2-(2′,6′-difluoro-5-methyl[1,1′-biphenyl]-2-yl)-2-fluorocyclopropane-1-carbonyl]-3-methylazetidin-2-yl}methyl)methanesulfonamide, or N-({(2S,3R)-1-[(1S,2S)-2-(2′,6′-difluoro-5-methyl[1,1′-biphenyl]-2-yl)-2-fluorocyclopropane-1-carbonyl]-3-methylazetidin-2-yl}methyl)methanesulfonamide]
10 | 76 | O=C([C@@H]1C[C@@]1(F)c1ccc(F)cc1-c1c(F)cccc1F)N1C[C@@H](F)[C@H]1CNS(=O)(=O)CC1CC1 [Example 445, 1-cyclopropyl-N-({(2R,3R)-3-fluoro-1-[(1S,2S)-2-fluoro-2-(2′,5,6′-trifluoro[1,1′-biphenyl]-2-yl)cyclopropane-1-carbonyl]azetidin-2-yl}methyl)methanesulfonamide]
11 | 78 | CS(=O)(=O)NC1CCN(C(=O)C2CC2c2ccc(F)cc2-c2ccccc2F)C1 (racemic) [Example 208, a mixture of rac-N-{(3R)-1-[(1R,2R)-2-(2′,5-difluoro[1,1′-biphenyl]-2-yl)cyclopropane-1-carbonyl]pyrrolidin-3-yl}methanesulfonamide and rac-N-{(3S)-1-[(1R,2R)-2-(2′,5-difluoro[1,1′-biphenyl]-2-yl)cyclopropane-1-carbonyl]pyrrolidin-3-yl}methanesulfonamide]
12 | 101 | CS(=O)(=O)NC1(CF)CCN(C(=O)[C@@H]2C[C@H]2c2ccccc2-c2c(F)cccc2F)C1 (stereo partly drawn) [Example 342, N-[(3R)-1-[(1R,2R)-2-(2′,6′-difluoro[1,1′-biphenyl]-2-yl)cyclopropane-1-carbonyl]-3-(fluoromethyl)pyrrolidin-3-yl]methanesulfonamide, or N-[(3S)-1-[(1R,2R)-2-(2′,6′-difluoro[1,1′-biphenyl]-2-yl)cyclopropane-1-carbonyl]-3-(fluoromethyl)pyrrolidin-3-yl]methanesulfonamide]
13 | 103 | CS(=O)(=O)N[C@@H]1CN(C(=O)[C@@H]2C[C@H]2c2ccccc2-c2c(F)cccc2F)C[C@@H]1F [Example 241, N-{(3R,4S)-1-[(1R,2R)-2-(2′,6′-difluoro[1,1′-biphenyl]-2-yl)cyclopropane-1-carbonyl]-4-fluoropyrrolidin-3-yl}methanesulfonamide]
14 | 89 | CCS(=O)(=O)NC[C@@H]1CCN1C(=O)[C@@H]1C[C@H]1c1ccccc1-c1c(F)cccc1F [Example 362, N-({(2S)-1-[(1R,2R)-2-(2′,6′-difluoro[1,1′-biphenyl]-2-yl)cyclopropane-1-carbonyl]azetidin-2-yl}methyl)ethanesulfonamide]
15 | 103 | CS(=O)(=O)N[C@H]1CCN(C(=O)C2CC2c2ccc(F)cc2-c2c(F)cccc2F)C1 (single isomer, unassigned) [Example 200, N-{(3S)-1-[(1R,2R)-2-(2′,5,6′-trifluoro[1,1′-biphenyl]-2-yl)cyclopropane-1-carbonyl]pyrrolidin-3-yl}methanesulfonamide, or N-{(3S)-1-[(1S,2S)-2-(2′,5,6′-trifluoro[1,1′-biphenyl]-2-yl)cyclopropane-1-carbonyl]pyrrolidin-3-yl}methanesulfonamide]
16 | 100 | CCS(=O)(=O)N[C@@H]1CN(C(=O)[C@@H]2C[C@H]2c2ccccc2-c2c(F)cccc2F)CCC1(F)F [Example 240, N-{(3R)-1-[(1R,2R)-2-(2′,6′-difluoro[1,1′-biphenyl]-2-yl)cyclopropane-1-carbonyl]-4,4-difluoropiperidin-3-yl}ethanesulfonamide]
17 | 98 | CS(=O)(=O)NC[C@@H]1[C@H](F)CN1C(=O)[C@@H]1C[C@@]1(F)c1ccccc1-c1c(F)cccc1F [Example 390, N-({(2R,3R)-1-[(1S,2S)-2-(2′,6′-difluoro[1,1′-biphenyl]-2-yl)-2-fluorocyclopropane-1-carbonyl]-3-fluoroazetidin-2-yl}methyl)methanesulfonamide]
18 | 73 | CS(=O)(=O)NC[C@@H]1CCN1C(=O)[C@@H]1C[C@H]1c1ccccc1-c1c(F)ccc(F)c1F [Example 408, N-({(2S)-1-[(1R,2R)-2-(2′,3′,6′-trifluoro[1,1′-biphenyl]-2-yl)cyclopropane-1-carbonyl]azetidin-2-yl}methyl)methanesulfonamide]
19 | 103 | CS(=O)(=O)NC1CN(C(=O)C2CC2c2ccc(F)cc2-c2c(F)cccc2F)CC1(F)F (stereo not drawn) [Example 245, N-{4,4-difluoro-1-[2-(2′,5,6′-trifluoro[1,1′-biphenyl]-2-yl)cyclopropane-1-carbonyl]pyrrolidin-3-yl}methanesulfonamide optical isomer]
